The text below walks through data of patent publication US11040954B1, “CXCR3 receptor agonists” (RECEPTOS LLC, priority 2016, dated 2021).

Where only a bound is given, the exact number is not on record here.

Data set [1] in a line: Mouse pharmacokinetics after oral gavage, plasma drug concentration by LC-MS/MS (C57BL/6). Type of data set: in vivo, C57bl/6 mice. Particulars: male mice; for Cmax / AUC(0-t): mouse, plasma; for AUC(0-t): read-out: AUC0-24. As for the experimental part:
(§1) Compounds were formulated in 5% DMSO/5% Tween20 in H2O, sonicated, vortexed, and put on stir plate overnight at a dose volume of 10 mL/kg. Balb/C (Jackson laboratories) or C57bl/6 (Taconic Biosciences) mice (8-9 weeks old) were acclimated to the colony for 3 days prior to dosing. Water and food were provided ab libitum. Compounds were administered by oral gavage. Groups of six animals received 3 to 4 bleeds per day with one terminal bleed. The time points were 30 min, 1 h, 2 h, 4 h, 6 h, 8 h, 24 h. Plasma was collected via centrifugation and analyzed for drug concentrations.
(§2) Preparation of Study Samples and Standards for Analysis by LC-MS/MS
(§3) 50 μl of plasma was aliquoted into a 96 well deep-well polypropylene plate (2 mL) to which 5 μL of DMSO was added. For standards, 5 μl of test compound in DMSO at […] the standard concentration was added to 50 μl of blank matrix in a 96 well deep-well polypropylene plate. For example, for a 300 nM standard, the 10× DMSO concentration was 3 μM. Study samples that require dilution are diluted with the appropriate blank matrix. For example, for a 10× dilution, 5 μL of study sample is added to 45 μl of blank matrix. Protein was precipitated from study samples and standards with the addition of 150 μl of acetonitrile. After a clean plate map was placed firmly over the top of the 96-well plate, a bench top shaker was used for 1 min to ensure complete precipitation of protein. The precipitated protein was pelleted by centrifuging for 3,000 rpm for 10 min at 20° C. and then the clear supernatant was transferred to a clean 96-well plate and spun again under the same conditions in order to pellet any solid material that may have been transferred.
(§4) Analysis of Study Samples and Standards with LCMS with MRM Detection
(§5) An Agilent 1200 HPLC with binary pump and a Leap CTC with fast wash autosampler were used to introduce samples to the mass spectrometer.
(§6) The column used was a Phenomenex Luna C8 30×2 mm 5 μm with a security guard. Mass detection was performed by an Applied Biosystems 4000 Qtrap in MRM mode and ionization was achieved by positive electrospray with a source temperature of 500° C. The ion transitions, […] potential and collision energies were dependent on the specific analyte.
(§7) Prepared samples were usually analyzed in reverse chronological order with bracketing standard curves. Typically at least 6 standards were used for quantification with a percent accuracy of +/−15% for all standards except at the LLOQ where a percent accuracy of +/−20% was allowed. The concentration time profile was fit using a one compartment model for the applicable mode of dosing using Phoenix WinNonLin 6.4.

The nature of data set [2]: Mouse pharmacokinetics after oral gavage, plasma drug concentration by LC-MS/MS (BALB/c). Type of data set: in vivo. Particulars: 10 mg/kg, male mice; for Cmax / AUC(0-t): mouse, plasma; for AUC(0-t): read-out: AUC0-24. As for the experimental part:
as §1, §2, §3, §4, §5, §6, §7

Another data set deals with T1, CXCR3 (Homo sapiens, UniProt P49682).
T1 construct: host or cells: CHO-K1 (cAMP Hunter CHOK1 CXCR3 Gi cell line)
T1 sequence (P49682 1-368): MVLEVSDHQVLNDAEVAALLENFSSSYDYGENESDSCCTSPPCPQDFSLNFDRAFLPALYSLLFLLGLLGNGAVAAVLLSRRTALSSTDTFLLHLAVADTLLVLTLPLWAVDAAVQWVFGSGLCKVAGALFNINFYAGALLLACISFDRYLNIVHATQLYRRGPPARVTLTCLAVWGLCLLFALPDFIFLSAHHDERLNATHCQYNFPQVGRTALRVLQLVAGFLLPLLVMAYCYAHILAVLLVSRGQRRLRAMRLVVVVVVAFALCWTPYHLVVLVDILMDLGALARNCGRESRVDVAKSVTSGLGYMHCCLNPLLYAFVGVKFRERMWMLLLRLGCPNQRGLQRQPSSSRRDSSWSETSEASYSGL
In words: CXCR3 cAMP agonist assay (cAMP Hunter CHOK1 CXCR3 Gi cell line, forskolin-stimulated, HitHunter cAMP detection). It counts as cell-based. Particulars: cAMP Hunter CHOK1 CXCR3 Gi cells, 20 μM forskolin, 30 minutes; read-out: Activity (CXCR3 cAMP agonist assay compound EC50). In short, it runs like this: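 Agonist activity was measured as suppression of forskolin (20 μM)-induced cAMP, read by luminescent enzyme-fragment complementation with a cAMP standard curve and CXCL11 defining full efficacy. Assay used 50,000 CXCR3 Gi CHOK1 cells/well in pH 7.4 HEPES-buffered HBSS with 0.1% BSA, compound 0-10 μM over 12 points, 30 min incubation.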

As a reminder, the Cmax is the maximum level reached in the sampled fluid or tissue. Take `N=C(N)NCCC[C@H](NC(=O)[C@@H]1Cc2ccccc2CN1C(=O)CCC(=O)c1ccccc1)C(=O)NCC1CCCCC1` [A]: in data set [1] (C57BL/6, 10 mg/kg), the AUC0-24 entry was “BQL”, the “apparent oral clearance (CL/F)” value is reported as “BQL” and the highest level (Cmax) was 2 nM. Also, in data set [2], the AUC0-24 entry is “BLQ”, the “apparent oral clearance (CL/F)” value is listed as “BQL” and the Cmax came out at 4 nM.
Take `NCCCC[C@H](NC(=O)[C@@H]1Cc2ccccc2CN1C(=O)CCC(=O)c1ccccc1)C(=O)NCC(c1ccccc1)c1ccccc1` [B]: in data set [1] (C57BL/6, 10 mg/kg), the “apparent oral clearance (CL/F)” value is given as 9000 mL/min/kg, the Cmax came out at 30 nM and the AUC(0-t) amounted to 0.029 µM·h. Also, in data set [2], the AUC0-24 entry was “BLQ”, the “apparent oral clearance (CL/F)” value is “BQL” and the highest level (Cmax) was 7 nM.
One may read the EC50 as the midpoint of the concentration-response curve. Regarding `NCCCC[C@H](NC(=O)[C@@H]1Cc2ccccc2CN1C(=O)CCC(=O)c1ccccc1)C(=O)Nc1ccc(Cl)c(F)c1` [Compound 1-20], at CXCR3, the EC50 was in the range of 50 to 250 nM. In data set [2], the “apparent oral clearance (CL/F)” value is 527 mL/min/kg, the Cmax was found to be 230 nM and the AUC(0-t) was 0.53 µM·h.
For `Cc1c(NC(=O)[C@H](CCCCN)NC(=O)[C@@H]2Cc3ccccc3CN2C(=O)CCC(=O)c2ccccc2)ccc(Cl)c1Cl` [Compound 1-25], the EC50 at CXCR3 is under 50 nM. Further, in data set [2], the “apparent oral clearance (CL/F)” value was 782 mL/min/kg, the peak level (Cmax) was 70 nM and the AUC(0-t) was 0.34 µM·h.
As for `NCCCC[C@H](NC(=O)[C@@H]1Cc2ccccc2CN1C(=O)CCC(=O)c1ccccc1)C(=O)Nc1ccc(F)c(C(F)(F)F)c1` [Compound 1-26], the EC50 on CXCR3 is under 50 nM. In data set [2], the Cmax amounted to 3 nM and the AUC(0-t) stood at 0.006 µM·h.
On to `NCC[C@H](NC(=O)[C@@H]1Cc2ccccc2CN1C(=O)CCC(=O)c1ccccc1)C(=O)Nc1ccc(Cl)c(Cl)c1` [Compound 2-1, (S)—N—((S)-4-amino-1-((3,4-dichlorophenyl)amino)-1-oxobutan-2-yl)-2-(4-oxo-4-phenylbutanoyl)-1,2,3,4-tetrahydroisoquinoline-3-carboxamide], for which the EC50 on CXCR3 lay within 50 to 250 nM. For the same compound, in data set [2], the “apparent oral clearance (CL/F)” value is on record as 66 mL/min/kg, the Cmax was 1800 nM and the AUC(0-t) came to 4.3 µM·h.
For `Cc1cc(NC(=O)[C@H](CCN)NC(=O)[C@@H]2Cc3ccccc3CN2C(=O)CCC(=O)c2ccccc2)ccc1Cl` [Compound 2-2], the EC50 on CXCR3 was under 50 nM. Further, the “apparent oral clearance (CL/F)” value in data set [1] (C57BL/6, 10 mg/kg) is 176 mL/min/kg; in data set [1] (C57BL/6, 60 mg/kg) it was 266 mL/min/kg. In addition, the Cmax in data set [1] (C57BL/6, 10 mg/kg) was 900 nM; in data set [1] (C57BL/6, 60 mg/kg), 2700 nM; in data set [2] it was 3500 nM. Moreover, the AUC(0-t) came to 1.7 µM·h in data set [1] (C57BL/6, 10 mg/kg) and 6.7 µM·h in data set [1] (C57BL/6, 60 mg/kg).
As for `Cc1ccc(NC(=O)[C@H](CCN)NC(=O)[C@@H]2Cc3ccccc3CN2C(=O)CCC(=O)c2ccccc2)cc1C` [Compound 2-3], the EC50 on CXCR3 was under 50 nM. Further, in data set [2], the “apparent oral clearance (CL/F)” value is listed as 403 mL/min/kg, the Cmax was 400 nM and the AUC(0-t) came to 0.8 µM·h.
The like results for `Cc1cccc(NC(=O)[C@H](CCN)NC(=O)[C@@H]2Cc3ccccc3CN2C(=O)CCC(=O)c2ccccc2)c1` [Compound 2-5] were, in that order, under 50 nM, 389 mL/min/kg, 500 nM and 0.8 µM·h.
Take `Cc1ccc(NC(=O)[C@H](CCN)NC(=O)[C@@H]2Cc3ccccc3CN2C(=O)CCC(=O)c2ccccc2)cc1C(F)(F)F` [Compound 2-7]: the EC50 on CXCR3 was under 50 nM. Besides, in data set [2], the “apparent oral clearance (CL/F)” value came to 86 mL/min/kg, the Cmax amounted to 1900 nM and the AUC(0-t) was 3.3 µM·h.
As for `Cc1cc(NC(=O)[C@H](CCN)NC(=O)[C@@H]2Cc3ccccc3CN2C(=O)CCC(=O)c2ccccc2)c(F)cc1Cl` [Compound 2-18], on CXCR3, the EC50 was under 50 nM. Further, in data set [2], the “apparent oral clearance (CL/F)” value is recorded as 47 mL/min/kg, the Cmax came to 2900 nM and the AUC(0-t) stood at 6.2 µM·h.
Consider `Cc1cc(NC(=O)[C@H](CCN)NC(=O)[C@@H]2Cc3ccccc3CN2C(=O)CCC(=O)c2ccccc2)c(C)cc1Cl` [Compound 2-19], for which the EC50 on CXCR3 was under 50 nM. Further, in data set [2], the “apparent oral clearance (CL/F)” value was 59 mL/min/kg, the concentration peaked (Cmax) at 1300 nM and the AUC(0-t) was 4.9 µM·h.
The like results for `Cc1cc(Cl)c(Cl)cc1NC(=O)[C@H](CCN)NC(=O)[C@@H]1Cc2ccccc2CN1C(=O)CCC(=O)c1ccccc1` [Compound 2-21] were, in that order, under 50 nM, 65 mL/min/kg, 900 nM and 4.3 µM·h.
Consider `Cc1cc(NC(=O)[C@H](CCN)NC(=O)[C@@H]2Cc3ccccc3CN2C(=O)CCC(=O)c2ccccc2)c(Cl)cc1Cl` [Compound 2-22], for which, on CXCR3, the EC50 is under 50 nM. Also, in data set [1] (C57BL/6, 10 mg/kg), the “apparent oral clearance (CL/F)” value is 19 mL/min/kg, the highest level (Cmax) was 2900 nM and the AUC(0-t) came to 15.1 µM·h. In addition, in data set [2], the “apparent oral clearance (CL/F)” value is listed as 10 mL/min/kg, the Cmax worked out at 4200 nM and the AUC(0-t) came to 27 µM·h.
Turning to `NCC[C@H](NC(=O)[C@@H]1Cc2ccccc2CN1C(=O)CCC(=O)c1ccccc1)C(=O)Nc1ccc(Cl)c(Cl)c1F` [Compound 2-24], the EC50 on CXCR3 was under 50 nM. In addition, the “apparent oral clearance (CL/F)” value was determined as 38 mL/min/kg in data set [1] (C57BL/6, 10 mg/kg); 58 mL/min/kg in data set [1] (C57BL/6, 60 mg/kg); 23 mL/min/kg in data set [2]. Further, the Cmax in data set [1] (C57BL/6, 10 mg/kg) was 1000 nM; in data set [1] (C57BL/6, 60 mg/kg) it was 3000 nM; in data set [2], 3300 nM. The AUC(0-t) in data set [1] (C57BL/6, 10 mg/kg) is 7 µM·h; in data set [1] (C57BL/6, 60 mg/kg), 29 µM·h; in data set [2], 12.3 µM·h.
On to `Cc1c(Cl)ccc(NC(=O)[C@H](CCN)NC(=O)[C@@H]2Cc3ccccc3CN2C(=O)CCC(=O)c2ccccc2)c1C` [Compound 2-26], for which, on CXCR3, the EC50 is under 50 nM. Besides, in data set [2], the “apparent oral clearance (CL/F)” value is on record as 76 mL/min/kg, the Cmax amounted to 900 nM and the AUC(0-t) was determined as 3.8 µM·h.
For `Cc1cc(NC(=O)[C@H](CCCN)NC(=O)[C@@H]2Cc3ccccc3CN2C(=O)CCC(=O)c2ccccc2)ccc1Cl` [Compound 4-3], the EC50 at CXCR3 is under 50 nM. In data set [2], the “apparent oral clearance (CL/F)” value is given as 4627 mL/min/kg, the peak level (Cmax) was 30 nM and the AUC(0-t) was 0.06 µM·h.
Take `CNCCCC[C@H](NC(=O)[C@@H]1Cc2ccccc2CN1C(=O)CCC(=O)c1ccccc1)C(=O)Nc1ccc(Cl)c(C)c1` [Compound 4-4]: the EC50 on CXCR3 is under 50 nM. Besides, in data set [2], the peak level (Cmax) was 20 nM and the AUC(0-t) came to 0.03 µM·h.
Regarding `Cc1cc(NC(=O)[C@H](CCCCNC(C)C)NC(=O)[C@@H]2Cc3ccccc3CN2C(=O)CCC(=O)c2ccccc2)ccc1Cl` [Compound 4-6], the EC50 on CXCR3 is under 50 nM. Further, in data set [1] (C57BL/6, 10 mg/kg), the “apparent oral clearance (CL/F)” value is on record as 2346 mL/min/kg, the Cmax was 70 nM and the AUC(0-t) turned out to be 0.11 µM·h. For the same compound, in data set [2], the “apparent oral clearance (CL/F)” value is recorded as 158 mL/min/kg, the Cmax was 1200 nM and the AUC(0-t) was determined as 1.7 µM·h.
